Measurements published in US10717716B2, “1,3,4-oxadiazole derivative compounds as histone deacetylase 6 inhibitor, and the pharmaceutical composition comprising the same” (Chong Kun Dang Pharmaceutical Corp., priority 2015, dated 2020).

Target: T1, human recombinant HDAC6 (Homo sapiens, UniProt Q9UBN7)
T1 construct: purchased Calbiochem 382180
T1 sequence (Q9UBN7 1-1215): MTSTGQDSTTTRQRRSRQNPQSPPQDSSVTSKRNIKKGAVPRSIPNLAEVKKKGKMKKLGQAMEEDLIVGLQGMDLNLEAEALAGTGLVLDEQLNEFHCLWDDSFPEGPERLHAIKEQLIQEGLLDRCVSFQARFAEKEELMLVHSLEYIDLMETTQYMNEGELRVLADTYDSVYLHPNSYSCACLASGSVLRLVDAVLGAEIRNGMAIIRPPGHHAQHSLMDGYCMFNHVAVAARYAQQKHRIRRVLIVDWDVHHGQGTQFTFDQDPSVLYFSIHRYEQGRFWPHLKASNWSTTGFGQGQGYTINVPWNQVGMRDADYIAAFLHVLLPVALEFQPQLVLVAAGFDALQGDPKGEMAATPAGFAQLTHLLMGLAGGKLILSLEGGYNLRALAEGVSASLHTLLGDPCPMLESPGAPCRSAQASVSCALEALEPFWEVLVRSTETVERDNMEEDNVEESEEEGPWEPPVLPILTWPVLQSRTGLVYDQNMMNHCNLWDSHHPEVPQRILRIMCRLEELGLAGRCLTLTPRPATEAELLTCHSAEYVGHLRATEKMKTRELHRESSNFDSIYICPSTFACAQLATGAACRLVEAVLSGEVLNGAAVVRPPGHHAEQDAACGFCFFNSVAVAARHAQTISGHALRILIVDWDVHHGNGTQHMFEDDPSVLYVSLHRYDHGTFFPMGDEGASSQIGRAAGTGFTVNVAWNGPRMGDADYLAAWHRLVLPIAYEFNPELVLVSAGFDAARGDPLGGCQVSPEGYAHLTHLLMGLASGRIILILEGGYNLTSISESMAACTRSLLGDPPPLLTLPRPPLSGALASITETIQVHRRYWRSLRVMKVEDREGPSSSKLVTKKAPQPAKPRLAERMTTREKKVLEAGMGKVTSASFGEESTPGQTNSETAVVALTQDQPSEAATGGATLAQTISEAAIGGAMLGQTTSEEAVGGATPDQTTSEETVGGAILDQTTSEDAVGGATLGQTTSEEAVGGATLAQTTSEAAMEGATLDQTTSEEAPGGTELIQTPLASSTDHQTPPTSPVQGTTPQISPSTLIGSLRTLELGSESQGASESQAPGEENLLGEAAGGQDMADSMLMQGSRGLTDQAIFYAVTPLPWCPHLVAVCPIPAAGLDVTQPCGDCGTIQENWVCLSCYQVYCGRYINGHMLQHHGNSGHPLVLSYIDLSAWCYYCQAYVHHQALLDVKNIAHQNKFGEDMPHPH
Test: HDAC6 enzyme activity inhibition assay (HDAC Fluorimetric Drug Discovery Kit)
Type: biochemical
Details: for HDAC6 selectivity (fold): HDAC6 over HDAC1; for IC50: human recombinant HDAC6, same protocol as HDAC1, read-out: HDAC6
Outline: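 Human recombinant HDAC1 or HDAC6 (0.3 μg) reacted with 10 μM Fluor de Lys-SIRT1 substrate and 5-fold compound dilutions for 60 min at 30 °C. Developer II added for 30 min, fluorescence read at Ex 360/Em 460; IC50 calculated from the readings.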

O=C(N1CCS(=O)(=O)CC1)N(Cc1ccc(-c2nnc(C(F)F)o2)cc1)c1ccc(-c2ccc3c(c2)OCO3)cc1 [Compound 21494, N-(4-(benzo[d][1,3]dioxol-5-yl)phenyl)-N-(4-(5-(difluoromethyl)-1,3,4-oxadiazol-2-yl)benzyl)thiomorpholine-4-carboxamide 1,1-dioxide]
HDAC6 selectivity (fold): 89 fold
IC50: 112 nM

O=C(N1CCC2(CC1)CNC2)N(Cc1ccc(-c2nnc(C(F)F)o2)cc1F)c1ccccc1 [Compound 21495, N-(4-(5-(difluoromethyl)-1,3,4-oxadiazol-2-yl)-2-fluorobenzyl)-N-phenyl-2,7-diazaspiro[3.5]nonane-7-carboxamide]
HDAC6 selectivity (fold): 294 fold
IC50: 34 nM

CN1CC2(CCN(C(=O)N(Cc3ccc(-c4nnc(C(F)F)o4)cc3F)c3ccccc3)CC2)C1 [Compound 21496, N-(4-(5-(difluoromethyl)-1,3,4-oxadiazol-2-yl)-2-fluorobenzyl)-2-methyl-N-phenyl-2,7-diazaspiro[3.5]nonane-7-carboxamide]
HDAC6 selectivity (fold): 500 fold
IC50: 20 nM

O=C(N1CC2(CCNCC2)C1)N(Cc1ccc(-c2nnc(C(F)F)o2)cc1F)c1ccccc1 [Compound 21497, N-(4-(5-(difluoromethyl)-1,3,4-oxadiazol-2-yl)-2-fluorobenzyl)-N-phenyl-2,7-diazaspiro[3.5]nonane-2-carboxamide]
HDAC6 selectivity (fold): 294 fold
IC50: 34 nM

CN1CCC2(CC1)CN(C(=O)N(Cc1ccc(-c3nnc(C(F)F)o3)cc1F)c1ccccc1)C2 [Compound 21498, N-(4-(5-(difluoromethyl)-1,3,4-oxadiazol-2-yl)-2-fluorobenzyl)-7-methyl-N-phenyl-2,7-diazaspiro[3.5]nonane-2-carboxamide]
HDAC6 selectivity (fold): 714 fold
IC50: 14 nM

CCN1CCC2(CC1)CN(C(=O)N(Cc1ccc(-c3nnc(C(F)F)o3)cc1F)c1ccccc1)C2 [Compound 21499, N-(4-(5-(difluoromethyl)-1,3,4-oxadiazol-2-yl)-2-fluorobenzyl)-7-ethyl-N-phenyl-2,7-diazaspiro[3.5]nonane-2-carboxamide]
HDAC6 selectivity (fold): 588 fold
IC50: 17 nM

CC(=O)N1CCC2(CC1)CN(C(=O)N(Cc1ccc(-c3nnc(C(F)F)o3)cc1F)c1ccccc1)C2 [Compound 21500, 7-Acetyl-N-(4-(5-(difluoromethyl)-1,3,4-oxadiazol-2-yl)-2-fluorobenzyl)-N-phenyl-2,7-diazaspiro[3.5]nonane-2-carboxamide]
HDAC6 selectivity (fold): 400 fold
IC50: 25 nM

CS(=O)(=O)N1CCC2(CC1)CN(C(=O)N(Cc1ccc(-c3nnc(C(F)F)o3)cc1F)c1ccccc1)C2 [Compound 21501, N-(4-(5-(difluoromethyl)-1,3,4-oxadiazol-2-yl)-2-fluorobenzyl)-7-(methylsulfonyl)-N-phenyl-2,7-diazaspiro[3.5]nonane-2-carboxamide]
HDAC6 selectivity (fold): 357 fold
IC50: 28 nM

O=C(N1CCS(=O)(=O)CC1)N(Cc1ccc(-c2nnc(C(F)F)o2)cc1)c1cccc(-c2ccccc2)c1 [Compound 21502, N-([1,1′-biphenyl]-3-yl)-N-(4-(5-(difluoromethyl)-1,3,4-oxadiazol-2-yl)benzyl)thiomorpholine-4-carboxamide 1,1-dioxide]
HDAC6 selectivity (fold): 36 fold
IC50: 279 nM

CCc1ccc(N(Cc2ccc(-c3nnc(C(F)(F)F)o3)cc2F)C(=O)N2CCS(=O)(=O)CC2)cc1 [Compound 21511, N-(4-ethylphenyl)-N-(2-fluoro-4-(5-(trifluoromethyl)-1,3,4-oxadiazol-2-yl)benzyl)thiomorpholine-4-carboxamide 1,1-dioxide]
HDAC6 selectivity (fold): 30 fold
IC50: 332 nM

CCc1ccc(N(Cc2ccc(-c3nnc(C(F)F)o3)cc2F)C(=O)N2CCS(=O)(=O)CC2)cc1 [Compound 21512, N-(4-(5-(difluoromethyl)-1,3,4-oxadiazol-2-yl)-2-fluorobenzyl)-N-(4-ethylphenyl)thiomorpholine-4-carboxamide 1,1-dioxide]
HDAC6 selectivity (fold): 108 fold
IC50: 93 nM

O=C(N1CCS(=O)(=O)CC1)N(Cc1ccc(-c2nnc(C(F)(F)F)o2)cc1F)c1ccc(OC(F)(F)F)cc1 [Compound 21513, N-(2-fluoro-4-(5-(trifluoromethyl)-1,3,4-oxadiazol-2-yl)benzyl)-N-(4-(trifluoromethoxy)phenyl)thiomorpholine-4-carboxamide 1,1-dioxide]
HDAC6 selectivity (fold): 47 fold
IC50: 212 nM

O=C(N1CCS(=O)(=O)CC1)N(Cc1ccc(-c2nnc(C(F)F)o2)cc1F)c1ccc(OC(F)(F)F)cc1 [Compound 21514, N-(4-(5-(difluoromethyl)-1,3,4-oxadiazol-2-yl)-2-fluorobenzyl)-N-(4-(trifluoromethoxy)phenyl)thiomorpholine-4-carboxamide 1,1-dioxide]
HDAC6 selectivity (fold): 286 fold
IC50: 35 nM

CN1CCN(Cc2ccc(N(Cc3ccc(-c4nnc(C(F)(F)F)o4)cc3F)C(=O)N3CCS(=O)(=O)CC3)cc2)CC1 [Compound 21515, N-(2-fluoro-4-(5-(trifluoromethyl)-1,3,4-oxadiazol-2-yl)benzyl)-N-(4-((4-methylpiperazin-1-yl)methyl)phenyl)thiomorpholine-4-carboxamide 1,1-dioxide]
HDAC6 selectivity (fold): 115 fold
IC50: 87 nM

CN1CCN(Cc2ccc(N(Cc3ccc(-c4nnc(C(F)F)o4)cc3F)C(=O)N3CCS(=O)(=O)CC3)cc2)CC1 [Compound 21516, N-(4-(5-(difluoromethyl)-1,3,4-oxadiazol-2-yl)-2-fluorobenzyl)-N-(4-((4-methylpiperazin-1-yl)methyl)phenyl)thiomorpholine-4-carboxamide 1,1-dioxide]
HDAC6 selectivity (fold): 250 fold
IC50: 40 nM

O=C(N1CCS(=O)(=O)CC1)N(Cc1ccc(-c2nnc(C(F)F)o2)cc1F)c1ccc(-c2cccnc2)cc1 [Compound 21518, N-(4-(5-(difluoromethyl)-1,3,4-oxadiazol-2-yl)-2-fluorobenzyl)-N-(4-(pyridin-3-yl)phenyl)thiomorpholine-4-carboxamide 1,1-dioxide]
HDAC6 selectivity (fold): 400 fold
IC50: 25 nM

O=C(N1CCS(=O)(=O)CC1)N(Cc1ccc(-c2nnc(C(F)F)o2)cc1F)c1ccc(-c2ccncc2)cc1 [Compound 21520, N-(4-(5-(difluoromethyl)-1,3,4-oxadiazol-2-yl)-2-fluorobenzyl)-N-(4-(pyridin-4-yl)phenyl)thiomorpholine-4-carboxamide 1,1-dioxide]
HDAC6 selectivity (fold): 159 fold
IC50: 63 nM

Cn1ccc2cc(-c3ccc(N(Cc4ccc(-c5nnc(C(F)(F)F)o5)cc4F)C(=O)N4CCS(=O)(=O)CC4)cc3)ccc21 [Compound 21521, N-(2-fluoro-4-(5-(trifluoromethyl)-1,3,4-oxadiazol-2-yl)benzyl)-N-(4-(1-methyl-1H-indol-5-yl)phenyl)thiomorpholine-4-carboxamide 1,1-dioxide]
HDAC6 selectivity (fold): 18 fold
IC50: 565 nM

O=C(N1CC2(COC2)C1)N(Cc1ccc(-c2nnc(C(F)F)o2)cc1F)c1ccccc1 [Compound 21522, N-(4-(5-(difluoromethyl)-1,3,4-oxadiazol-2-yl)-2-fluorobenzyl)-N-phenyl-2-oxa-6-azaspiro[3.3]heptane-6-carboxamide]
HDAC6 selectivity (fold): 455 fold
IC50: 22 nM

CN1CCN(C(=O)N(Cc2ccc(-c3nnc(C(F)F)o3)cn2)c2ccccc2)CC1 [Compound 21527, N-((5-(5-(difluoromethyl)-1,3,4-oxadiazol-2-yl)pyridin-2-yl)methyl)-4-methyl-N-phenylpiperazine-1-carboxamide]
HDAC6 selectivity (fold): 357 fold
IC50: 28 nM

O=C(N1CCS(=O)(=O)CC1)N(Cc1ccc(-c2nnc(C(F)(F)F)o2)cc1F)c1cccc(OC(F)(F)F)c1 [Compound 21528, N-(2-fluoro-4-(5-(trifluoromethyl)-1,3,4-oxadiazol-2-yl)benzyl)-N-(3-(trifluoromethoxy)phenyl)thiomorpholine-4-carboxamide 1,1-dioxide]
HDAC6 selectivity (fold): 47 fold
IC50: 214 nM
